This test addresses Pyruvate dehydrogenase kinase 1 (PDK1) (Homo sapiens, UniProt Q15118). Put plainly: ELISA-based in-well kinase assay: active PDK1 (Abcam) phosphorylating captured PDHA1 at Ser232. It counts as biochemical. A general note: In an ELISA, binding on a coated surface is turned into a signal by an enzyme label.

The text below walks through data of publication PMC5472302, “Dicumarol inhibits PDK1 and targets multiple malignant behaviors of ovarian cancer cells” (PLoS ONE, 2017).

The term IC50 denotes the point on the concentration scale where inhibition reaches its midpoint. A low value points to inhibition by little substance.

Molecules are shown by their SMILES.

Sequence of Pyruvate dehydrogenase kinase 1 (PDK1) (Q15118 29-436): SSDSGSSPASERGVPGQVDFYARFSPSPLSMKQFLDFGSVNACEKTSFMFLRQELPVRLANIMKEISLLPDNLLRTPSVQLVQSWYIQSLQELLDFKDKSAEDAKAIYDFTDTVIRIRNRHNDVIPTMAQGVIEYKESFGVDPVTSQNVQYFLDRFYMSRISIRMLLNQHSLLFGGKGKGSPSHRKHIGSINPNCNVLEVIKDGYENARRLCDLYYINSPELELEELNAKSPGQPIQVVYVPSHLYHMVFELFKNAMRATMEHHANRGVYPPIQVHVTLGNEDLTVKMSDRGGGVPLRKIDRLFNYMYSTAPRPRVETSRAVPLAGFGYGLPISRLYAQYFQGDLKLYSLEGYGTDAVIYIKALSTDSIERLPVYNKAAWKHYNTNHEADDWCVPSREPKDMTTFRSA

The compound `O=c1oc2ccccc2c(O)c1Cc1c(O)c2ccccc2oc1=O` [DIC, dicumarol] registered an IC50 of 19.42 ± 0.032 µM.
